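These data come from cells grown in 96-well plates and exposed to compound for 48 hours at five concentrations. Abbreviation: GI50, concentration required for 50% inhibition of growth. TGI is the concentration that stops growth completely.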 A value given as a limit tells only on which side of the number the result lay.

One experiment concerns SF-295 CNS. Kind of experiment: NCI-60 cell line screen, 48 h.
Molecule `C[C@]12C/C(=C/O)C(=O)C(O)=C1CC[C@@H]1C2CC[C@@]2(C)C1CC[C@@H]2O` (some centres undefined) gave a TGI of 72.5 µM.

On to `CC1(C)CC(=O)C(CC2C(=O)c3ccccc3C2=O)C(=O)C1`, for which the TGI is above 100 µM.

The molecule `Cc1ccc(C)c(N2C(=O)C(=O)C(c3nc4ccccc4s3)C(=Nc3cccc4c(=O)[nH][nH]c(=O)c34)C2=O)c1` (centres undefined) showed a TGI above 100 µM.

For `N#CC(C#N)=c1c2nsnc2c(=C(C#N)C#N)c2nsnc12`, the TGI is 3.33 µM.

Turning to `Cc1nc(-c2cccnc2)sc1C(=O)/C=C/c1cccc([N+](=O)[O-])c1`, the TGI was above 100 µM.

The test system of another experiment is SNB-19 CNS. Kind of experiment: NCI-60 cell line screen, 48 h.
As to `Cc1c2ccncc2c(C)c2c1[nH]c1ccc(O)c(OCC(F)(F)F)c12`, the TGI was found to be 9.17 µM.

Molecule `CC(C)(C)OC(=O)NC1CCCC1=O` (centres undefined) showed a TGI above 100 µM.

For the molecule `Cc1c(C(=O)/C=C/c2ccccc2[N+](=O)[O-])[n+](=O)c2ccccc2n1[O-]`, the TGI stood at 33.4 µM.

`Cc1cccc(C)c1N1C(=O)C(=O)C(c2nc3ccccc3s2)/C(=N/NC(=O)NN)C1=O` (centres undefined) gave a TGI above 100 µM.

`CCCCCCC(C)CCCCCCCCCCC(=O)O` (centres undefined) showed a TGI above 100 µM.

On to `CC(C)(C)c1ccc(OC2CCO2)cc1` (centres undefined), for which the TGI was above 100 µM.

`CC1(O)CCn2c(=O)c3cc4ccccc4cc3c(=O)n2C1O` (centres undefined): the TGI was above 100 µM.

For the molecule `CC(C)[O-].CC(C)[O-].O=c1cccccc1[O-].O=c1cccccc1[O-].[Ti+4]`, the TGI is above 100 µM.

Molecule `COc1cc(CNc2nc3ccc(C(F)(F)F)cc3nc2-c2ccccc2)cc(OC)c1OC` returned a TGI above 100 µM.

Molecule `COc1ccccc1NC(=O)/C(=C/c1ccccc1)C(C)=O` came in with a TGI above 100 µM.

`CC(=O)n1c(=O)c2cc3c(=O)n(-c4cccc(C#N)c4)c(=O)c3cc2c1=O` displayed a TGI above 100 µM.

On to `O=C(CC1(O)C(=O)Nc2c(Cl)ccc(Cl)c21)c1ccc(Cl)cc1Cl` (centres undefined), for which the TGI was above 100 µM.

For `CC1=NN(C(=O)c2ccncc2)C(=O)C1N=Nc1ccc(F)cc1` (centres undefined), the TGI is above 100 µM.

For the molecule `COc1ccc(C2Oc3c(c(O)cc4c3[C@H](c3ccc(O)cc3O)[C@H](O)C(c3ccc(O)c(O)c3)O4)C[C@@H]2O)cc1O` (some centres undefined), the TGI was above 100 µM.

On to `CCOC(OC1=C(C#N)CCCC1)C(CC)[Se]c1ccccc1` (centres undefined), for which the TGI was above 100 µM.

Regarding `C=C1C2Oc3ccccc3C1N(c1ccccc1)O2` (centres undefined), the TGI is above 100 µM.

Molecule `C=C1C(=O)C23C(O)C1CC[C@H]2C12CCCC(C)(COC(C)=O)[C@H]1[C@H](O)[C@]3(O)OC2` (some centres undefined) registered a TGI of 7.03 µM.

With `O=S1CSSC1`, the TGI is above 100 µM.

`C=CCNC(=O)N(CCC)CCCC(NC(C)=O)C(=O)NCc1ccccc1` (centres undefined) returned a TGI above 100 µM.

Molecule `CN(C)C(=S)Nc1nnc(Nc2ccccc2)s1` registered a TGI above 100 µM.

As to `CC(=O)[CH-]C(=O)c1ccccc1.CC(=O)[CH-]C(=O)c1ccccc1.CC1(C)OCC(C2OC3OC(C)(C)OC3C2[O-])O1.CC[O-].[Ti+4]` (centres undefined), the GI50 is 12.4 µM and the TGI came out at 25.4 µM.

In the case of `CCOC(=O)C1(Cc2ccc3ccccc3c2)CCCCC(=O)N1` (centres undefined), the TGI was above 100 µM.

As to `Cc1ccccc1/C=C/C(=O)c1ccccc1`, the TGI was 30.3 µM.

As to `COC(=O)C1C(=O)N(CCc2c[nH]c3ccccc23)C[C@@H]2CCC(=O)C[C@H]12` (some centres undefined), the TGI was above 100 µM.

In turn, `C[C@]12C/C(=C/O)C(=O)C(O)=C1CC[C@@H]1C2CC[C@@]2(C)C1CC[C@@H]2O` (some centres undefined) yielded a TGI of 36.1 µM.

Regarding `CC1(C)CC(=O)C(CC2C(=O)c3ccccc3C2=O)C(=O)C1`, the TGI was above 100 µM.

On to `Cc1ccc(C)c(N2C(=O)C(=O)C(c3nc4ccccc4s3)C(=Nc3cccc4c(=O)[nH][nH]c(=O)c34)C2=O)c1` (centres undefined), for which the TGI was above 100 µM.

For the molecule `N#CC(C#N)=c1c2nsnc2c(=C(C#N)C#N)c2nsnc12`, the TGI came out at 4.33 µM.

For a further experiment, the system named is UO-31 renal. Put plainly: NCI-60 cell line screen, 48 h.
Turning to `Cc1c2ccncc2c(C)c2c1[nH]c1ccc(O)c(OCC(F)(F)F)c12`, the TGI is 19.9 µM.

With `CC(C)(C)OC(=O)NC1CCCC1=O` (centres undefined), the TGI was above 100 µM.

`Cc1c(C(=O)/C=C/c2ccccc2[N+](=O)[O-])[n+](=O)c2ccccc2n1[O-]` gave a TGI of 33 µM.

With `O=C1[C@H]2ON(c3ccccc3)C(c3ccco3)[C@H]2C(=O)N1c1ccc(Cc2ccc(N3C(=O)[C@@H]4ON(c5ccccc5)C(c5ccco5)[C@@H]4C3=O)cc2)cc1` (some centres undefined), the TGI is above 100 µM.

For `Cc1cccc(C)c1N1C(=O)C(=O)C(c2nc3ccccc3s2)/C(=N/NC(=O)NN)C1=O` (centres undefined), the TGI is above 100 µM.

Turning to `CCCCCCC(C)CCCCCCCCCCC(=O)O` (centres undefined), the TGI was above 100 µM.

In turn, `CC(C)(C)c1ccc(OC2CCO2)cc1` (centres undefined) registered a TGI above 100 µM.

The molecule `CC(C)[O-].CC(C)[O-].O=c1cccccc1[O-].O=c1cccccc1[O-].[Ti+4]` returned a TGI above 100 µM.

The molecule `COc1cc(CNc2nc3ccc(C(F)(F)F)cc3nc2-c2ccccc2)cc(OC)c1OC` came in with a TGI of 55.6 µM.

Take `COc1ccccc1NC(=O)/C(=C/c1ccccc1)C(C)=O`: the TGI was above 100 µM.

With `CC(=O)n1c(=O)c2cc3c(=O)n(-c4cccc(C#N)c4)c(=O)c3cc2c1=O`, the TGI is above 100 µM.

For `O=C(CC1(O)C(=O)Nc2c(Cl)ccc(Cl)c21)c1ccc(Cl)cc1Cl` (centres undefined), the TGI stood at 37.1 µM.

Take `CC1=NN(C(=O)c2ccncc2)C(=O)C1N=Nc1ccc(F)cc1` (centres undefined): the TGI was above 100 µM.

`COc1ccc(C2Oc3c(c(O)cc4c3[C@H](c3ccc(O)cc3O)[C@H](O)C(c3ccc(O)c(O)c3)O4)C[C@@H]2O)cc1O` (some centres undefined) showed a TGI above 100 µM.

In the case of `CCOC(OC1=C(C#N)CCCC1)C(CC)[Se]c1ccccc1` (centres undefined), the TGI is above 100 µM.

In turn, `C=C1C2Oc3ccccc3C1N(c1ccccc1)O2` (centres undefined) yielded a TGI above 100 µM.

Consider `C=C1C(=O)C23C(O)C1CC[C@H]2C12CCCC(C)(COC(C)=O)[C@H]1[C@H](O)[C@]3(O)OC2` (some centres undefined), for which the TGI amounted to 3.35 µM.

`O=S1CSSC1` yielded a TGI of 34.7 µM.

Molecule `C=CCNC(=O)N(CCC)CCCC(NC(C)=O)C(=O)NCc1ccccc1` (centres undefined) had a TGI above 100 µM.

As for `CN(C)C(=S)Nc1nnc(Nc2ccccc2)s1`, the TGI was above 100 µM.

As to `CC(=O)[CH-]C(=O)c1ccccc1.CC(=O)[CH-]C(=O)c1ccccc1.CC1(C)OCC(C2OC3OC(C)(C)OC3C2[O-])O1.CC[O-].[Ti+4]` (centres undefined), the GI50 is 18.8 µM and the TGI is 41.9 µM.

For the molecule `CCOC(=O)C1(Cc2ccc3ccccc3c2)CCCCC(=O)N1` (centres undefined), the TGI is 82.2 µM.

With `Cc1ccccc1/C=C/C(=O)c1ccccc1`, the TGI came out at 36.2 µM.

`COC(=O)C1C(=O)N(CCc2c[nH]c3ccccc23)C[C@@H]2CCC(=O)C[C@H]12` (some centres undefined) gave a TGI above 100 µM.

For the molecule `C[C@]12C/C(=C/O)C(=O)C(O)=C1CC[C@@H]1C2CC[C@@]2(C)C1CC[C@@H]2O` (some centres undefined), the TGI was 31.3 µM.

In the case of `CC1(C)CC(=O)C(CC2C(=O)c3ccccc3C2=O)C(=O)C1`, the TGI was above 100 µM.

Regarding `Cc1ccc(C)c(N2C(=O)C(=O)C(c3nc4ccccc4s3)C(=Nc3cccc4c(=O)[nH][nH]c(=O)c34)C2=O)c1` (centres undefined), the TGI is above 100 µM.

For `N#CC(C#N)=c1c2nsnc2c(=C(C#N)C#N)c2nsnc12`, the TGI was 3.87 µM.

`Cc1nc(-c2cccnc2)sc1C(=O)/C=C/c1cccc([N+](=O)[O-])c1` had a TGI above 100 µM.

These data come from PubChem BioAssay (NCI).
